The text below walks through data of ChEMBL document CHEMBL1909592, “Targeting the prostaglandin F2α receptor for preventing preterm labor with azapeptide tocolytics” (J Med Chem, 2011).

Activity calls are given as the source filed them. The rule behind the calls is not given here. Square brackets hold non-standard residues; d marks the D form. Peptide text beside a SMILES is read from it. * marks the point of attachment. dCit = NC(=O)NCCC[C@@H](N)C(=O)O; 3Pal = N[C@@H](Cc1cccnc1)C(=O)O; β3hF = N[C@H](CC(=O)O)Cc1ccccc1; PhAc = O=C(Cc1ccccc1)*; azaGly = NNC(=O)O Where only a bound is given, the exact number is not on record here.

Assay [1] deals with Prostaglandin F2-alpha receptor (Mus musculus) (UniProt P43117). Nature of the assay: Antagonist activity at FP receptor in postpartum mouse myometrial strip assessed as inhibition of PGF-2alpha-induced uterine contractions. The class given is functional.
Assay [2] deals with Prostaglandin F2-alpha receptor (Homo sapiens) (UniProt P43088). Nature of the assay: Antagonist activity at human FP receptor expressed in HEK293 cells assessed as potentiation of PGF-2alpha-induced Galphaq-mediated PKC/ERK1/2 activation at 1 uM after 30 mins by Western blot analysis. It is filed as functional, cell-based.
Assay [3] has the same target. Nature of the assay: Antagonist activity at human FP receptor expressed in HEK293 cells assessed as inhibition of cell ruffling at 1 uM after 30 mins by immunofluorescence assay. It is filed as functional, cell-based.
Assay [4] shares this target. Briefly: Antagonist activity at human FP receptor expressed in HEK293 cells assessed as ERK1/2 activation at 1 uM after 30 mins by Western blot analysis. The class given is functional, cell-based. (A western blot detects proteins with antibodies after separation by electrophoresis.)
Assay [5] has the same target. Briefly: Antagonist activity at human FP receptor expressed in HEK293 cells assessed as inhibition of PGF-2alpha-mediated cell ruffling at 1 uM after 30 mins by immunofluorescence assay (reference value: 65.7 +/- 1.6 %). The class given is functional, cell-based.
Assay [6] in a line: Antagonist activity at FP receptor in pig retina assessed as inhibition of PGF-2alpha induced microvascular contraction at 100 uM. It is filed as functional. The conditions noted are these: Sus scrofa.
Assay [7] is described as follows: Antagonist activity at FP receptor in pig retina assessed as inhibition of PGF-2alpha induced microvascular contraction. The class given is functional, tissue-based, Sus scrofa.
The target of assay [8] is Prostaglandin F2-alpha receptor (Mus musculus, UniProt P43117). Nature of the assay: Antagonist activity at FP receptor in mouse myometrial strip assessed as inhibition of PGF-2alpha-induced contractions. It is filed as functional.
Assay [9] has as its target Prostaglandin F2-alpha receptor (Bos taurus, UniProt P37289). Nature of the assay: Antagonist activity at FP receptor in bovine myometrial strip assessed as inhibition of PGF-2alpha-induced contractions. The class given is functional.
Assay [10] deals with Prostaglandin F2-alpha receptor (Bos taurus) (UniProt P37289). The conditions noted are these: 100 uM.
Description: Antagonist activity at FP receptor in bovine myometrial strip assessed as inhibition of PGF-2alpha-induced contractions at 100 uM
In assay [11] the target is Prostaglandin F2-alpha receptor (Mus musculus) (UniProt P43117). The conditions noted are these: 100 uM.
Description: Antagonist activity at FP receptor in mouse myometrial strip assessed as inhibition of PGF-2alpha-induced contractions at 100 uM
Assay [12] concerns the target Prostaglandin F2-alpha receptor (Ovis aries, UniProt Q28905). Nature of the assay: Antagonist activity at FP receptor in sheep myometrial strip assessed as inhibition of PGF-2alpha-induced contractions. The class given is functional.
Assay [13] is filed under the species Mus musculus. Briefly: Inhibition of PGF-2alpha-induced uterine contractions in pregnant mouse assessed as time delay in preterm labor at 0.8 mg/day. It is filed as functional.
The target of assay [14] is Prostaglandin F2-alpha receptor (Ovis aries) (UniProt Q28905). The conditions noted are these: 100 uM.
Description: Antagonist activity at FP receptor in sheep myometrial strip assessed as inhibition of PGF-2alpha-induced contractions at 100 uM
The test system of assay [15] is Mus musculus. Briefly: Inhibition of PGF-2alpha-induced uterine contractions in pregnant CD-1 mouse assessed as time delay in preterm labor at 0.1 mg, ip administered as bolus dose immediately followed by 10 mg, sc. The class given is functional.
The subject of assay [16] is Mus musculus. Nature of the assay: Inhibition of LPS-induced uterine contractions in pregnant CD-1 mouse assessed as time delay in preterm labor at 0.1 mg, ip administered as bolus dose immediately followed by 10 mg, sc. It is filed as functional.

Chain of Prostaglandin F2-alpha receptor (Mus musculus) (P43117 whole entry): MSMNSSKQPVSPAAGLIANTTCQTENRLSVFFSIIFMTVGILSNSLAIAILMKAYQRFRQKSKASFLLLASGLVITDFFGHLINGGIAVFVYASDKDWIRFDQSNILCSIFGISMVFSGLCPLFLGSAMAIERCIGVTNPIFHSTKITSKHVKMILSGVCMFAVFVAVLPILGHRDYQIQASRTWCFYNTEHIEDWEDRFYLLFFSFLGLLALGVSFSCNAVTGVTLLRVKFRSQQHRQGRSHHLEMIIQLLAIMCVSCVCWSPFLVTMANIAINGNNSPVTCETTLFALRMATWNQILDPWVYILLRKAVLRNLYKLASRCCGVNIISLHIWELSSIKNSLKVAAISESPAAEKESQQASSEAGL
Chain of Prostaglandin F2-alpha receptor (Homo sapiens) (P43088 whole entry): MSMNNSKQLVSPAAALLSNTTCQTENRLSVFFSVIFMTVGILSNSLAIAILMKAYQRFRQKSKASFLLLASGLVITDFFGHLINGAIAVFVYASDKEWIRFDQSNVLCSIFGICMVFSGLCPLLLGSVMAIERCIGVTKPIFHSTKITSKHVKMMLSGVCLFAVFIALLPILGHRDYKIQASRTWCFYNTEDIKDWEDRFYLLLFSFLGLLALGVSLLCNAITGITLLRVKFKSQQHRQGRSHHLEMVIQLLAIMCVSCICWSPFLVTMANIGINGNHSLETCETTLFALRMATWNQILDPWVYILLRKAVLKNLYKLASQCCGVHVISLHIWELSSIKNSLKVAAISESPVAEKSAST
Chain of Prostaglandin F2-alpha receptor (Bos taurus, UniProt P37289) (P37289 whole entry): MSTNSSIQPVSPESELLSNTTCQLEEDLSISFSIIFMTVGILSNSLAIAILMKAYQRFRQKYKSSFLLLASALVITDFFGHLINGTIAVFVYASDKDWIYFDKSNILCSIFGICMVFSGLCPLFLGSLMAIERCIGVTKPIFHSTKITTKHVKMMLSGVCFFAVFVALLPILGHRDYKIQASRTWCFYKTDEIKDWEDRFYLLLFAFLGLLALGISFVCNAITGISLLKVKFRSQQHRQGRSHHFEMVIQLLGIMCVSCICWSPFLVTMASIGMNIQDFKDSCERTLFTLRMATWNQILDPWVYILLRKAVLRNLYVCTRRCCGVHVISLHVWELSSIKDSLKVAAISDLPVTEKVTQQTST
Chain of Prostaglandin F2-alpha receptor (Bos taurus) (P37289 whole entry): as above
Chain of Prostaglandin F2-alpha receptor (Mus musculus, UniProt P43117) (P43117 whole entry): as the sequence (P43117 whole entry) above
Chain of Prostaglandin F2-alpha receptor (Ovis aries) (Q28905 whole entry): as the sequence (P37289 whole entry) above, with S5N, I7V, E13A, E192Q, D340N counted along it
Chain of Prostaglandin F2-alpha receptor (Ovis aries, UniProt Q28905) (Q28905 whole entry): as the sequence (P37289 whole entry) above, with S5N, I7V, E13A, E192Q, D340N counted along it

As for `O=C(O)C[C@H](Cc1ccccc1)NC(=O)[C@H](Cc1cccnc1)NC(=O)[C@@H]1CCC[C@@H]2C[C@H](NC(=O)Cc3ccccc3)C(=O)N21`, the inhibition result in assay [1] was “inactive”.
As for `C#CCN(NC(=O)Cc1ccccc1)C(=O)N1CCC[C@H]1C(=O)N[C@@H](Cc1cccnc1)C(=O)N[C@H](CC(=O)O)Cc1ccccc1`, the outcome in [2] was Active. Also, the inhibition entry in assay [3] was “inactive”. Moreover, the inhibition result in [1] is “Active”. The result in assay [4] was inactive. In addition, in assay [5], the inhibition was 56.7%.
Consider `O=C(O)C[C@H](Cc1ccccc1)NC(=O)[C@H](Cc1cccnc1)NC(=O)[C@@H]1CCCN1C(=O)NNC(=O)Cc1ccccc1` (PhAc-[azaGly]P[3Pal][β3hF]-OH), for which, in assay [2], the result was Active. Further, the inhibition entry in assay [3] is “inactive”. Also, the inhibition entry in assay [1] is “Active”. Besides, in assay [4], the result was inactive. For the same compound, the inhibition in assay [5] worked out at 37.5%.
Turning to `O=C(O)C[C@H](Cc1ccccc1)NC(=O)[C@H](Cc1cccnc1)NC(=O)[C@@H]1CCC[C@@H]2CC[C@H](NC(=O)Cc3ccccc3)C(=O)N21`, the inhibition entry in assay [1] was “inactive”.
Consider `C=CCN(NC(=O)Cc1ccccc1)C(=O)N1CCC[C@H]1C(=O)N[C@@H](Cc1cccnc1)C(=O)N[C@H](CC(=O)O)Cc1ccccc1`, for which, in assay [1], the inhibition entry was “inactive”.
In the case of `O=C(O)C[C@H](Cc1ccccc1)NC(=O)[C@H](Cc1cccnc1)NC(=O)[C@@H]1CCCN1C(=O)N(Cc1ccccc1)NC(=O)Cc1ccccc1`, the outcome in assay [2] was Active. In addition, the inhibition entry in [3] was “inactive”. The inhibition entry in assay [1] is “Active”. The result in assay [4] was inactive. Further, the inhibition in [5] came out at 37.4%.
With `NC(=O)NCCC[C@H](NC(=O)[C@H]1CC[C@H]2CC[C@@H](NC(=O)Cc3ccccc3)C(=O)N21)C(=O)N[C@H](CC(=O)O)Cc1ccccc1`, the inhibition entry in assay [1] is “inactive”.
Regarding `CC[C@@H](C)[C@@H](N)C(=O)N[C@H](CC(C)C)C(=O)NCC(=O)N[C@H](Cc1cnc[nH]1)C(=O)N[C@H](CCCNC(=N)N)C(=O)N[C@H](CC(=O)O)C(=O)N[C@H](Cc1ccc(O)cc1)C(=O)N[C@H](CCCCN)C(=O)O` (H-[dI][dL]G[dH][dR][dD][dY][dK]-OH), the inhibition at 100 µM in assay [6] was above 80%. Moreover, in assay [7], the 50% inhibitory concentration (IC50) is 340 nM.
As to `NC(=O)NCCC[C@@H](NC(=O)[C@H]1CC[C@H]2CC[C@@H](NC(=O)Cc3ccccc3)C(=O)N21)C(=O)N[C@@H](CC(=O)O)Cc1ccccc1`, the inhibition result in assay [1] was “inactive”.
In the case of `CC[C@@H](C)[C@@H](N)C(=O)N[C@H](CC(C)C)C(=O)NCC(=O)N[C@H](Cc1cnc[nH]1)C(=O)N[C@H](CCCNC(N)=O)C(=O)N[C@H](CC(=O)O)C(=O)N[C@H](Cc1ccc(O)cc1)C(=O)N[C@H](CCCCN)C(=O)O` (H-[dI][dL]G[dH][dCit][dD][dY][dK]-OH), the half-inhibitory concentration (IC50) in assay [8], in assay [9] and in assay [12] was 13 nM throughout. In addition, the inhibition in assay [10], in assay [11] and in [14] was above 85% each time. The Time in the assay listed under Mus musculus [13] came out at 48 h.
In the case of `CN(NC(=O)Cc1ccccc1)C(=O)N1CCC[C@H]1C(=O)N[C@@H](Cc1cccnc1)C(=O)N[C@H](CC(=O)O)Cc1ccccc1`, the inhibition entry in assay [1] is “inactive”.
In the case of `O=C(O)C[C@H](Cc1ccccc1)NC(=O)[C@H](Cc1cccnc1)NC(=O)[C@@H]1CC[C@@H]2CC[C@H](NC(=O)Cc3ccccc3)C(=O)N21`, the outcome in assay [2] was Active. Moreover, the figures for the Time in the assay with Mus musculus [15] and with Mus musculus [16] were 42 h and 28 h, respectively. For the same compound, the inhibition entry in assay [1] is “Active”. Besides, the inhibition in assay [5] came to 40.3%.

The term inhibition denotes the relative decrease from the control value, in per cent. What is called IC50 is the concentration at which inhibition is half-maximal.
